Results on one compound are retold here after patent publication US12162843B2, “High-purity thermostable crystal form of substituted 3-isoxazolidinone compound, preparation method therefor and application thereof” (ZHEJIANG ZHUJI UNITED CHEMICALS CO., LTD., priority 2019, dated 2024).

A short description of the data set: Stability experiment of the orthorhombic crystal (PXRD before and after storage). The format is physicochemical. To be noted: high-temperature (60±2° C.) oven, 90±5% humidity, 4500±5001 ux light intensity, 10 days, samples on 5th and 10th days. How it is done:
A further object of the application is to investigate stability of the orthorhombic crystal of the 2-[(2,4-dichlorophenyl)methyl]-4,4-dimethyl-3-isoxazolidinone compound (Formula I). The orthorhombic crystal is stored in a high-temperature (60±2° C.) oven, in a 90±5% humidity condition, and under 4500±5001 ux light intensity for 10 days, respectively, during which samples are collected on the 5th and 10th days for a PXRD analysis.
A PXRD diffractometer (X′Pert PRO, PNAlytical, Netherlands) is employed to collect the following specific data: Cu anode=40 kV, 150 mA, 2θ scanning range=0°˜45°, scanning speed=8°/min, step size=0.02°, divergence slit (DS)=1°, anti-scattering slit=(SS) 1°, and receiving slit (RS)=0.15 mm.
The crystals of the 2-[(2,4-dichlorophenyl)methyl]-4,4-dimethyl-3-isoxazolidinone compound (Formula I) obtained in embodiments 3, 4, 5, and 6 are respectively placed in a high-temperature (60±2° C.) oven, in a 90±5% humidity condition, and under 4500±5001 ux light intensity for 10 days. Samples are collected on the 5th and 10th days for the PXRD analysis.

Molecules are shown by their SMILES.

On to `CC1(C)CON(Cc2ccc(Cl)cc2Cl)C1=O` [orthorhombic crystal, 2-[(2,4-dichlorophenyl)methyl]-4,4-dimethyl-3-isoxazolidinone], for which the “stability of the crystal form (PXRD before and after storage)” value is “stable crystal form under high temperature, humidity and light intensity conditions”. Moreover, the “stability of the crystal form (PXRD before and after storage)” value (listed as orthorhombic crystals) is “remain stable under high temperature, high humidity, and light intensity”.
